Molecules are shown by their SMILES. Bounds are passed on as bounds.

Usually melting point stands for the temperature, or range, at which the solid turns liquid.

Compound `COc1cc(C=C2SC(N3CCOCC3)=NC2=O)cc(-c2ccc(O)c(C34CC5CC(CC(C5)C3)C4)c2)c1O` came in with a melting point of 335 to 338 °C.
`Cc1cc(-c2cc(C(F)(F)F)n3ncc(I)c3n2)ccc1Cl` showed a melting point of 151 °C.
For `CC(C)(O)c1cc(C(C)(C)O)cc(C(C)(C)O)c1`, the melting point is 148 to 150 °C.
`ON=C(c1ccccc1)c1ccc(OCCCOc2ccc(C(=NO)c3ccccc3)cc2)cc1` had a melting point of 205 to 208 °C.
`Cc1nc(N2CCc3ccsc3CC2)c([N+](=O)[O-])c(=O)[nH]1` displayed a melting point of more than 200 °C.
The figure for `O=P1(O)Oc2c(-c3ccccc3)cc(Cl)cc2-c2ccccc21` is 260 °C.
As to `N=C(NO)c1ccc(-c2cccc(-c3cn4cc(C(=N)NO)ccc4n3)c2)cc1`, the melting point is 252 to 254 °C.
In the case of `O=C(O)c1cc(S(=O)(=O)NCCc2ccccc2Cl)ccc1Cl`, the melting point lay in the range of 175 to 177 °C.
The compound `C[C@@H](Nc1c(Nc2cccnc2)c(=O)c1=O)C(C)(C)C` displayed a melting point of 283 to 285 °C.
The compound `COc1c(Cl)ccc(-c2cc(N)c(Cl)c(C(=O)NOCc3ccc(Cl)cc3)n2)c1F` gave a melting point of 177 to 180 °C.
`O=C(NC(=NCCCOc1ccccc1)Oc1ccccc1)c1ccccc1` had a melting point of 75 °C.
Take `O=C(c1cc2ccccc2[nH]1)N1CCOCC1Cl` (configuration not stated): the melting point was 254 to 255 °C.
In turn, `O=C(O)C(=O)c1cnsn1` displayed a melting point of 130 to 133 °C.
Consider `OCCc1ccc(-c2ccc(F)cc2F)c(F)c1`, for which the melting point fell in the range of 44 to 45 °C.
For `COc1cccc(N(CC(=O)N(C)c2ccccc2)C(=O)CNC(=O)Nc2cccc(C(C)O)c2)c1` (racemic), the melting point was found to be 115 °C.
`COCCOc1cc2ncnc(Cl)c2cc1OCCOC` registered a melting point of 108 to 109 °C.
The same measure for `COc1ccc(C=CC(=O)NNC(=O)CCc2cc(C(C)(C)C)c(O)c(C(C)(C)C)c2)cc1`: 252 to 254 °C; for `Cc1cc(Nc2ccnc(Nc3ccc(S(=O)(=O)N(C)C4CCN(Cc5csnn5)CC4)cc3)n2)ccc1F`: 168 °C.
Compound `CCCC1CC(=O)Nc2c1cnn2CC` (configuration not stated) had a melting point of 108 to 110 °C.
Turning to `OCCN1CCN(C2=Nc3ccccc3Oc3cscc32)CC1`, the melting point is 187 to 192 °C.
Compound `CC1(C)Cc2c(ccc3c2C(c2cccc(-c4ccc(C(N)=O)cc4)c2)=NCC3(C)C)O1` yielded a melting point of 284 to 296 °C.
Compound `CC(C)(C)OC(=O)CON=C(c1ccccc1)c1cc2ccncc2[nH]1` displayed a melting point of 47 to 52 °C.
For `CNc1c(F)cc2c(=O)c(C(=O)O)cn(-c3ccc(F)c(O)c3)c2c1C`, the melting point was more than 280 °C.
Compound `C[C@@H](NCC1COc2ccccc2N1)c1ccccc1` (some centres not stated) had a melting point of 91 to 92 °C.
The compound `CC(C)Cc1ccc(C(C)C(=O)OC2OC(=O)c3ccccc32)cc1` (configuration not stated) came in with a melting point of 62 to 65 °C.
The same measure for `CCCCCC(C)N(C=C1C(=O)OC(C)(CNc2cc(C(C)(C)C)c(O)c(C(C)(C)C)c2)OC1=O)Cc1ccc(CC(C)(C)C)s1` (configuration not stated): 184 to 185 °C; for `CC(C)(C)OC(=O)N1CCC(c2nc3cc(-c4ccc(-n5cnnn5)cc4F)ccc3o2)CC1`: 203 to 207 °C; for `CCC1(CC)CSSC[C@@H](C(=O)O)NC1=O`: 127 to 128 °C.
In turn, `CCOC(=O)OCn1c(SCc2nccc3ccsc23)nc2ccccc21` yielded a melting point of 90 to 92 °C.
For `CCCCCCCCCCCC(=O)c1cn(CCCC(=O)O)c2ccccc12`, the melting point is 88 to 90 °C.
Take `CN(C)Cc1ccc(CSCCNc2ncc(Cc3ccn(Cc4ccccc4)c(=O)c3)c(=O)[nH]2)o1`: the melting point lay within 95.5 to 98 °C.
The figure for `CCc1nc2cc(C(F)(F)F)c(Cl)cc2n1-c1ccc(C[C@H](C)OC(=O)NS(=O)(=O)c2ccc(C)cc2)cc1` is 200 °C; for `CNS(=O)(=O)Cc1ccc2[nH]cc(C3CCN(C)C3)c2c1` (configuration not stated) it is 160 to 162 °C; for `CC1=C2OCOC2CC(C)(C)C1=O` (configuration not stated) it is 55.5 to 57 °C.
The same measure for `O=C(Nc1cc(Cl)ccc1C(=O)O)NS(=O)(=O)c1ccc(OCCN2CCN(c3ccccc3)CC2)cc1`: 177 to 179 °C; for `COc1cc(C(O)CN2CCC(Cc3ccccc3)CC2)on1` (configuration not stated): 134 to 137 °C; for `CNC(=S)NS(=O)(=O)c1cc(CCNC(=O)c2cc(Cl)ccc2OC)ccc1-c1ccccc1`: 192 to 196 °C.
The compound `CN(C)S(=O)(=O)N(C)c1cccc2cc(-c3nccs3)[nH]c12` had a melting point of 123 °C.
`COc1ccccc1CC(=O)c1ccc(C(C)C)c(OS(N)(=O)=O)c1C(C)C`: the melting point is 159 to 161 °C.
The figure for `CCN(CC)CCC1CCN(C(=O)N2c3ccccc3C(=O)Nc3cccnc32)CC1` is 154 °C; for `CCCc1cc(Cl)c2oc(-c3ccccc3)c(C)c2c1OC(C)=O` it is 86 to 87 °C; for `CCOC(=O)NCCc1ccccc1` it is 47 to 48 °C.
The figure for `O=C(CNC1CCCCC1)Nc1ccc([N+](=O)[O-])cc1` is 123 to 125 °C; for `CCC(C)N1CN(C)C(=O)N(c2nc3c(s2)C(=O)CC(C)(C)C3)C1` (configuration not stated) it is 126 to 127 °C.
The figure for `Cc1c(-c2cccc(O)c2O)c(=O)oc2cc(O)ccc12` is 273 to 274 °C; for `CC(C)(C)c1ccc2c(C#N)ccc(C#N)c2c1` it is 58 to 59 °C; for `Nc1ccc(Br)n2nc(SCc3ccccc3)nc12` it is 125 to 126 °C.
In turn, `COc1ccc2c(c1)CCC(N(CC(=O)O)C(=O)C(C)CSC(C)=O)C2` (configuration not stated) yielded a melting point of 118 to 122 °C.
The same measure for `Cc1cc2c(cc1C)C(=O)C(CC(=O)O)CC2` (configuration not stated): 193 to 194 °C; for `COc1c(Cl)ccc(-c2nc(C=O)c(Cl)c(N)c2F)c1F`: 192 to 196 °C; for `Nc1nccnc1C(=O)NCCN1CCC(Nc2nc3ccccc3n2Cc2ccc(F)cc2)CC1`: 157 °C.
The figure for `COc1cccc(NC(=O)C(C)(C)C)c1C(C)O` (configuration not stated) is 159 °C.
For the compound `N#Cc1cc(O)cc2nc(-c3ccc(O)c(F)c3)oc12`, the melting point was in the range of 308 to 310 °C.
In the case of `NC(=O)CCN1CC2CN(Cc3ccccc3)CC(C1)O2`, the melting point lay in the range of 157 to 159 °C.
The figure for `CCn1ncnc1COc1nn2c(-c3ccccc3F)nncc2c1-c1ccncc1` is 214 to 217 °C; for `CCOC(=O)NC(=O)c1nn(-c2cc(Cl)c(C(C)(C)C#N)c(Cl)c2)c(=O)[nH]c1=O` it is 110 °C.
The same measure for `CC(C)C[C@@H](NC(=O)OC(C)(C)C)C(=O)N[C@H](C(=O)OCc1ccccc1)C(C)C`: 82 to 83 °C; for `COc1cc2c(c(Cl)c1Cl)C(=O)C(C1CCCC1)C2` (configuration not stated): 116 to 117 °C; for `O=C(NCC(=O)N1CCC(=C2c3ccccc3C=Cc3ccccc32)CC1)OCc1ccccc1`: 142 to 144 °C.
`Cc1nn2c(=O)c(CCN3CCC(n4ccc5cc(F)ccc54)CC3)c(C)nc2s1` yielded a melting point of 194 °C.
The compound `CCC(CO)Nc1c(-c2c(F)cc(F)cc2F)c(Cl)nc2ncnn12` (configuration not stated) returned a melting point of 76 to 77 °C.
The same measure for `CS(=O)(=O)N1CCC(COCc2cc(C(F)(F)F)cc(C(F)(F)F)c2)(c2ccccc2)CC1`: 102 to 104 °C.
The compound `Cn1nc(-c2nc(-n3cccc3)c(N)nc2-c2ccccc2)ccc1=O` showed a melting point of 202 to 205 °C.
`Cc1cccc2c(=O)cc(C(=O)Nc3ccc(CC4SC(=O)NC4=O)cc3)oc12` (configuration not stated) had a melting point of 305 to 307 °C.
The figure for `COC(=O)/C=C/n1cnc2ccc(Cl)cc2c1=O` is 171 to 172 °C; for `CCCCOc1c(CO)n(CC(C)C)c(=O)c2ccc(OCc3ccccc3)cc12` it is 90 to 91 °C.
As for `CC(C)N(C(=O)C(C)C(C#N)(c1ccccc1)c1ccccc1)C(C)C` (configuration not stated), the melting point fell in the range of 195 to 205 °C.
Turning to `COC(=O)C1=C(C(=O)OC)C2(c3ccc(Cl)cc3Cl)CCC1O2` (configuration not stated), the melting point is 78 °C.
`COC(=O)c1nc(OC)n(C)c1C(=O)OC` showed a melting point of 62 to 63 °C.
As for `Cc1cccc(-c2n[nH]cc2-c2ccc(F)c(-c3ccc(OCCO)cn3)c2)n1`, the melting point fell in the range of 148 to 151 °C.
`c1cncc(C2=NNC(c3cccnc3)S2)c1` (configuration not stated) came in with a melting point of 77 to 78 °C.
For the compound `COc1cccc(OC)c1-c1cc2cnc(N)nc2nc1N`, the melting point is more than 300 °C.
The compound `CCc1ccc(C2CCCN2S(=O)(=O)c2ccc(Cl)cc2)cc1` (racemic) showed a melting point of 94 °C.
The same measure for `COC(=O)c1ccc(N)c(NC(=O)c2ccc(C(C)(C)C)cc2)c1`: 175 °C; for `CS(=O)(=O)c1ccc(C(CC2CCCC2)C(=O)Nc2ccccn2)cc1[N+](=O)[O-]` (configuration not stated): 92 to 95 °C.
`Cc1sc(-c2ccccc2)nc1COc1ccc(Cn2cc(CC(=O)O)c(-c3ccccc3)n2)cn1` had a melting point of 140 to 141 °C.
Consider `CCOC(=O)c1cccc(NC(=O)Nc2ccc(-n3nc(C(F)(F)F)cc3C(F)(F)F)cc2)c1`, for which the melting point lay in the range of 211 to 212 °C.
As to `CC(C)(C)NC(=O)[C@@H]1CN(NC(=O)OC(C)(C)C)CCN1NC(=O)Cc1ccccc1`, the melting point lay within 134 to 135 °C.
The same measure for `N#Cc1c(Cl)cnc2cc(I)sc12`: 209 to 211 °C; for `Cc1nn(S(=O)Oc2ccccc2)c2ccccc12` (configuration not stated): 141 to 143 °C; for `Cc1cccc(Cl)c1C(N)=NO`: 136 to 137 °C.
For `CC(CCCC(=O)O)(c1ccc(OCc2ccc3ccccc3n2)cc1)c1ccc(OCc2ccc3ccccc3n2)cc1`, the melting point lay in the range of 87 to 89 °C.
Compound `CN(C(=O)C(F)(F)F)C1(C)CN(c2cc3c(cc2F)c(=O)c(C(=O)O)cn3C2CC2)C1` showed a melting point of 210 to 215 °C.
Regarding `COc1ccc(-c2nc(N)ncc2-c2ccc(=O)n(C(C)C)n2)cc1OC`, the melting point was 167 °C.
`CCOC(=O)N(NC(N)=O)c1ccc(CC[Si](OCC)(OCC)OCC)cc1`: the melting point fell in the range of 123 to 124 °C.
Turning to `CC(C)CCc1ccc(C=CC(O)=S)cc1`, the melting point was 132 to 133 °C.
The same measure for `Cc1ccc(OC(=O)c2cc3cc(S(=O)(=O)N(C)C)c(Cl)c(Cl)c3o2)cc1`: 176 to 177 °C.

Source of the values: a melting point compilation (Tetko et al.; mined from patent text by program, amines drawn as free bases though some values may be those of a salt).
